How the values were obtained:
[1] = test system: Non-Small Cell Lung Carcinoma Cell Lines; conditions: NSCLC cell lines; with cisplatin or cisplatin plus radiation; cited from earlier work
[2] = test system: acute and sub-chronic radiation damage; platinum therapy kidney damage; conditions: mucositis, pulmonary pneumonitis and fibrosis, liver damage; cited from earlier work
[3] = test system: kidney damage from cisplatin; conditions: cisplatin therapy for cancer; cited from earlier work
lung masses = assay: incidence of lung masses at necropsy; type: in vivo, mouse (female BALB/c); conditions: for # Lung Masses / % Yield (percentage mice with lung masses): GC4419 24 mg/kg i.p.; for occurrence of lung masses vs untreated / incidence of lung tumors vs untreated: final results (FIG. 4)
Method: All animal studies conducted used female BALB/c mice irradiated at 77-91 days of age and housed for a lifetime study to determine rates of carcinogenesis and survival. Animals were purchased from Charles River Laboratory, shipped to Brookhaven National Laboratory, and irradiated with the doses and ion species described below.
Animals were treated or not with GC4419. Those animals treated with GC4419 followed the following strategy. GC4419 was delivered at a dose of 24 mg/kg (mice were weighed prior to drug delivery) interperitoneally (i.p.) at roughly 45-60 minutes prior to radiation exposure. GC4419 was then provided i.p. for the next 6 days, and the animals were shipped to UT Southwestern (UTSW) Medical Center for temporary quarantine before returning to the animal facility. Upon return to UTSW the animals were treated with GC4419 i.p. weekly for another 11 weeks for a total of 12 weeks on treatment.
Radiation exposures were whole body. The galactic cosmic ray (GCR) simulation exposures used the beam line at the NASA Space Radiation Laboratory at Brookhaven National Lab (BNL) and the γ-ray exposures used a ^137Cs source at BNL. Subsequent to single dose irradiation, animals were returned to their cages.
Galactic cosmic rays (GCR) are heavy ion radiation characteristic of the deep space environment, and the GCR simulation (GCRsim) at BNL mimics the complex radiation environment in space. The GCRsim ions used are described in Table 1 below.
Pathological endpoints were also considered. Specifically, lung cancer induction, or carcinogenesis, and other tumors that are evident in numbers large enough to consider as secondary endpoints. These endpoints are described in the following tables and figure. The term “masses” is used to describe an abnormal growth, evident by eye, within a given tissue; for example, the term “lung masses” is used to describe abnormal tissues found in the lung that are collected for pathologic examination.
Given prior experience with the mouse model of radiation-induced carcinogenesis, it is expected that most, if not all, of the lung masses are tumors. For the ovarian masses, some proportion of the masses are expected to be tumors. For observations of hepatosplenomegaly, many of the enlarged livers and spleens may not reflect tumors of those organs. These may, however, may be present as result of hematologic malignancies, such as leukemias, but that was not assessed in this experiment.
Table 2 presents the incidence of lung masses observed at necropsy by treatment cohort, including preliminary data for certain γ-ray cohorts through approximately 600 days post-irradiation and for unirradiated animals treated with GC4419 (Control+GC4419) cohort through approximately 400 days post-irradiation. FIG. 4 presents final results for incidence of lung masses. […] In other words, in part GC4419 could have delayed carcinogenesis.

In the case of `[Cl][Mn][Cl].c1cc2nc(c1)CN[C@H]1CCCC[C@@H]1NCCN[C@H]1CCCC[C@@H]1NC2` [GC4419], the “response to cisplatin and cisplatin plus radiation” value [1] is given as “Enhances the Response of Non-Small Cell Lung Carcinoma Cell Lines to Cisplatin and Cisplatin Plus Radiation”, the “overt acute and sub-chronic radiation damage; platinum therapy kidney damage” value [2] is given as “reduce overt acute and sub-chronic radiation damage” and the “kidney damage from cisplatin” value [3] is given as “reduce kidney damage from cisplatin therapy”. The “# Lung Masses” value (lung masses; GCRsim 0.4 Gy, 224 mice) was 24, the “% Yield (percentage mice with lung masses)” value (lung masses; GCRsim 0.4 Gy, 224 mice, untreated pair 10.0) was 10.7% and the “# Lung Masses” value (lung masses; GCRsim 0.75 Gy, 248 mice) was 27. The “% Yield (percentage mice with lung masses)” value (lung masses; GCRsim 0.75 Gy, 248 mice, untreated pair 21.0) was 10.9%, the “occurrence of lung masses vs untreated” value (lung masses; GCRsim 0.75 Gy, p<0.01) was “markedly and statistically significantly decreased occurrence of lung masses” and the “# Lung Masses” value (lung masses; unirradiated (0 Gy), 235 mice, preliminary, approx. 400 days) was 1. For the same compound, the “% Yield (percentage mice with lung masses)” value (lung masses; unirradiated (0 Gy), 235 mice, preliminary, approx. 400 days, untreated pair 10.6) was 0.4%, the “incidence of lung tumors vs untreated” value (lung masses; unirradiated (Control)) was “absence of a clear difference” and the “# Lung Masses” value (lung masses; γ-ray 0.75 Gy, 248 mice, preliminary for certain γ-ray cohorts (approx. 600 days)) was 15. For the same compound, the “% Yield (percentage mice with lung masses)” value (lung masses; γ-ray 0.75 Gy, 248 mice, preliminary for certain γ-ray cohorts (approx. 600 days), untreated pair 14.7) was 6.0%, the “occurrence of lung masses vs untreated” value (lung masses; γ-ray 0.75 Gy, p<0.05) was “markedly and statistically significantly decreased occurrence of lung masses” and the “# Lung Masses” value (lung masses; γ-ray 1.5 Gy, 248 mice, preliminary for certain γ-ray cohorts (approx. 600 days)) was 16. The “% Yield (percentage mice with lung masses)” value (lung masses; γ-ray 1.5 Gy, 248 mice, preliminary for certain γ-ray cohorts (approx. 600 days), untreated pair 11.9) was 6.5% and the “incidence of lung tumors vs untreated” value (lung masses; γ-ray 1.5 Gy) was “absence of a clear difference”.

Reference: patent publication US20260373193A1, “CARCINOGENESIS REDUCTION WITH PENTAAZA MACROCYLIC RING COMPLEX” (GALERA LABS, LLC, priority 2023, published 2026)
